tested on: AMPK; assay: AMPK activation assay (enzyme-linked immunosorbent assay); type: cell-based
Summary of the method: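 Compounds were tested for their capacity to activate the kinase using standard, commercially available kit reagents and procedures.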

`O=C(NC1CCN(Cc2ccc(OC(F)(F)F)cc2)CC1)c1ccc(C(=O)N2CCC(Oc3cccc(NC(=O)C4CC4)c3)CC2)nc1` [Compound 438, 6-(4-(3-(cyclopropanecarboxamido)phenoxy)piperidine-1-carbonyl)-N-(1-(4-(trifluoromethoxy)benzyl)piperidin-4-yl)nicotinamide] and `O=C(NC1CCN(Cc2ccc(OC(F)(F)F)cc2)CC1)c1ccc(C(=O)N2CCC(Oc3ccc(C(=O)C4CC4)cc3)CC2)nc1` [Compound 455, 6-(4-(4-(cyclopropanecarbonyl)phenoxy)piperidine-1-carbonyl)-N-(1-(4-(trifluoromethoxy)benzyl)piperidin-4-yl)nicotinamide] cannot be ordered by EC50: under 500 nM for the first, under 500 nM for the second.

Going from `O=C(c1ccc(-c2ccc(OCc3ccccc3)cc2)nc1)N1CCN(Cc2ccc(F)cc2)CC1` [Compound 17, (4-(4-fluorobenzyl)piperazin-1-yl)(6-(4-(benzyloxy)phenyl)pyridin-3-yl)methanone] to `O=C(Nc1ccc(Cc2ccccc2)cc1)c1ccc(C(=O)N2CCN(Cc3ccc(F)cc3)CC2)cn1` [Compound 10, N-(4-benzylphenyl)-5-(4-(4-fluorobenzyl)piperazine-1-carbonyl)picolinamide], the EC50 falls from over 10000 nM to under 500 nM. The second is the more potent here.

`N#Cc1ccc(CN2CCC(NC(=O)c3ccc(C(=O)N4CCN(Cc5ccncc5)CC4)cn3)CC2)cc1` [Compound 103, N-(1-(4-cyanobenzyl)piperidin-4-yl)-5-(4-(pyridin-4-ylmethyl)piperazine-1-carbonyl)picolinamide] and `COc1ccc(CN2CCC(NC(=O)c3ccc(C(=O)N4CCN(Cc5ccc(C#N)cc5)CC4)cn3)CC2)cc1` [Compound 285, 5-(4-(4-cyanobenzyl)piperazine-1-carbonyl)-N-(1-(4-methoxybenzyl)piperidin-4-yl)picolinamide] cannot be ordered by EC50: under 500 nM for the first, under 500 nM for the second.

`N#Cc1ccc(CN2CCC(NC(=O)c3ccc(C(=O)N4CCC(C(=O)c5ccc(-n6cccn6)cc5)CC4)nc3)CC2)cc1` [Compound 393, 6-(4-(4-(1H-pyrazol-1-yl)benzoyl)piperidine-1-carbonyl)-N-(1-(4-cyanobenzyl)piperidin-4-yl)nicotinamide] and `COc1ccc(C(=O)C2CCN(C(=O)c3ccc(C(=O)NC4CCN(Cc5ccc(C#N)cc5)CC4)nn3)CC2)cc1` [Compound 387, N-(1-(4-cyanobenzyl)piperidin-4-yl)-6-(4-(4-methoxybenzoyl)piperidine-1-carbonyl)pyridazine-3-carboxamide] cannot be ordered by EC50: under 500 nM for the first, under 500 nM for the second.

Going from `N#Cc1ccc(CN2CCC(NC(=O)c3ccc(C(=O)N4CCC(Oc5ccc([N+](=O)[O-])cc5)CC4)nc3)CC2)cc1` [Compound 363, N-(1-(4-cyanobenzyl)piperidin-4-yl)-6-(4-(4-nitrophenoxy)piperidine-1-carbonyl)nicotinamide] to `CS(=O)(=O)Nc1ccc(OC2CCN(C(=O)c3ccc(C(=O)NC4CCN(Cc5ccc(C#N)cc5)CC4)cn3)CC2)cc1` [Compound 367, N-(1-(4-cyanobenzyl)piperidin-4-yl)-6-(4-(4-(methylsulfonamido)phenoxy)piperidine-1-carbonyl)nicotinamide], the EC50 rises from under 500 nM to over 10000 nM. The first is the more potent here.

`CC(=O)c1ccc(OC2CCN(C(=O)c3ccc(C(=O)NC4CCN(Cc5ccc(C#N)cc5)CC4)nc3)CC2)cc1` [Compound 358, 5-(4-(4-acetylphenoxy)piperidine-1-carbonyl)-N-(1-(4-cyanobenzyl)piperidin-4-yl)picolinamide] and `COc1ccc(CN2CCC(NC(=O)c3ccc(C(=O)N4CCC(Oc5ccc(C#N)cc5)CC4)cn3)CC2)cc1` [Compound 162, 5-(4-(4-cyanophenoxy)piperidine-1-carbonyl)-N-(1-(4-methoxybenzyl)piperidin-4-yl)picolinamide] cannot be ordered by EC50: under 500 nM for the first, under 500 nM for the second.

`COc1ccc(C(=O)C2CCN(C(=O)c3ccc(C(=O)N[C@@H]4CCN(Cc5ccc(C#N)cc5)C[C@H]4F)cn3)CC2)cc1` [Compound 452, N-((3R,4R)-1-(4-cyanobenzyl)-3-fluoropiperidin-4-yl)-6-(4-(4-methoxybenzoyl)piperidine-1-carbonyl)nicotinamide] and `CS(=O)(=O)c1ccc(OC2CCN(C(=O)c3ccc(C(=O)N[C@@H]4CCN(Cc5ccc(C#N)cc5)C[C@H]4F)nc3)CC2)cc1` (relative stereo) [Compound 254, N-((trans)-1-(4-cyanobenzyl)-3-fluoropiperidin-4-yl)-5-(4-(4-(methylsulfonyl)phenoxy)piperidine-1-carbonyl)picolinamide] cannot be ordered by EC50: under 500 nM for the first, under 500 nM for the second.

`CS(=O)(=O)c1ccc(OC2CCN(C(=O)c3ccc(C(=O)NC4CCN(Cc5ccc(N6CCCC6)cc5)CC4)nc3)CC2)cc1` [Compound 208, 5-(4-(4-(methylsulfonyl)phenoxy)piperidine-1-carbonyl)-N-(1-(4-(pyrrolidin-1-yl)benzyl)piperidin-4-yl)picolinamide] and `O=C(NC1CCN(Cc2ccc(N3CCCC3)cc2)CC1)c1ccc(C(=O)N2CCC(Oc3ccc(F)cc3)CC2)cn1` [Compound 196, 5-(4-(4-fluorophenoxy)piperidine-1-carbonyl)-N-(1-(4-(pyrrolidin-1-yl)benzyl)piperidin-4-yl)picolinamide] cannot be ordered by EC50: under 500 nM for the first, under 500 nM for the second.

First: COc1ccc(C(=O)C2CCN(c3ccc(C(=O)N4CCN(Cc5ccc(F)cc5)CC4)cn3)CC2)cc1 [Compound 189, (4-(4-fluorobenzyl)piperazin-1-yl)(6-(4-(4-methoxybenzoyl)piperidin-1-yl)pyridin-3-yl)methanone]
Second: CS(=O)(=O)c1ccc(C(=O)C2CCN(C(=O)c3ccc(C(=O)NC4CCN(Cc5ccc(N6CCCC6)cc5)CC4)nc3)CC2)cc1 [Compound 233, 5-(4-(4-(methylsulfonyl)benzoyl)piperidine-1-carbonyl)-N-(1-(4-(pyrrolidin-1-yl)benzyl)piperidin-4-yl)picolinamide]
The EC50 of the first is higher: 1000 to 5000 nM for the first, under 500 nM for the second. The second is the more potent here.

First: CC(=O)c1ccc(Oc2ccc(NC(=O)c3ccc(C(=O)N4CCC(C(=O)c5ccc(F)cc5F)CC4)nc3)cn2)cc1 [Compound 464, N-(6-(4-acetylphenoxy)pyridin-3-yl)-6-(4-(2,4-difluorobenzoyl)piperidine-1-carbonyl)nicotinamide]
Second: O=C(Nc1ccc(Oc2ccc(F)cc2)nc1)c1ccc(C(=O)N2CCC(C(=O)c3ccc(F)c(F)c3)CC2)cn1 [Compound 330, 5-(4-(3,4-difluorobenzoyl)piperidine-1-carbonyl)-N-(6-(4-fluorophenoxy)pyridin-3-yl)picolinamide]
The EC50 of the first is lower: under 500 nM for the first, 500 to 1000 nM for the second. The first is the more potent here.

Compared with `Cc1ccc(OC2CCN(C(=O)c3ccc(C(=O)NC4CCN(Cc5cc(F)cc(F)c5)CC4)nc3)CC2)cc1` [Compound 293, N-(1-(3,5-difluorobenzyl)piperidin-4-yl)-5-(4-(p-tolyloxy)piperidine-1-carbonyl)picolinamide], `COc1ccc(OC2CCN(C(=O)c3ccc(C(=O)NC4CCN(Cc5ccc(C#N)cc5)CC4)cn3)CC2)c(N)c1` [Compound 384, 6-(4-(2-amino-4-methoxyphenoxy)piperidine-1-carbonyl)-N-(1-(4-cyanobenzyl)piperidin-4-yl)nicotinamide] is higher in EC50: under 500 nM for the first, 500 to 1000 nM for the second. The first is the more potent here.

First: N#Cc1ccc(CN2CCC(NC(=O)c3ccc(-c4cn(Cc5ccccc5)nn4)cn3)CC2)cc1 [Compound 121, 5-(1-benzyl-1H-1,2,3-triazol-4-yl)-N-(1-(4-cyanobenzyl)piperidin-4-yl)picolinamide]
Second: N#Cc1ccc(CN2CCC(NC(=O)c3ccc(C(=O)N4CC(OCc5ccc(F)cc5)C4)cn3)CC2)cc1 [Compound 307, N-(1-(4-cyanobenzyl)piperidin-4-yl)-5-(3-(4-fluorobenzyloxy)azetidine-1-carbonyl)picolinamide]
The EC50 of the first is higher: 1000 to 5000 nM for the first, 500 to 1000 nM for the second. The second is the more potent here.

`O=C(Nc1ccc(Oc2ccc(F)cc2)nc1)c1ccc(C(=O)N2CCC(C(=O)c3ccc(F)cc3)CC2)cn1` [Compound 272, 5-(4-(4-fluorobenzoyl)piperidine-1-carbonyl)-N-(6-(4-fluorophenoxy)pyridin-3-yl)picolinamide] and `O=C(Nc1ccc(Oc2ccc(F)cc2)nc1)c1ccc(C(=O)N2CCN(Cc3ccc(F)cc3)CC2)cn1` [Compound 65, 5-(4-(4-fluorobenzyl)piperazine-1-carbonyl)-N-(6-(4-fluorophenoxy)pyridin-3-yl)picolinamide] cannot be ordered by EC50: under 500 nM for the first, under 500 nM for the second.

First: N#Cc1ccc(CN2CCC(NC(=O)c3ccc(C(=O)N4CCC(C(=O)c5cccs5)CC4)cn3)CC2)cc1 [Compound 419, N-(1-(4-cyanobenzyl)piperidin-4-yl)-5-(4-(thiophene-2-carbonyl)piperidine-1-carbonyl)picolinamide]
Second: N#Cc1ccc(CN2CCC(NC(=O)c3ccc(C(=O)N4CCCCC4Cc4ccc(F)cc4)cn3)CC2)cc1 (stereo not drawn) [Compound 153, N-(1-(4-cyanobenzyl)piperidin-4-yl)-5-(2-(4-fluorobenzyl)piperidine-1-carbonyl)picolinamide]
The EC50 of the first is lower: under 500 nM for the first, 1000 to 5000 nM for the second. The first is the more potent here.

`N#Cc1ccc(CNC(=O)c2ccc(NC(=O)c3ccc(C(=O)N4CCN(Cc5ccc(F)cc5)CC4)cn3)cc2)cc1` [Compound 47, N-(4-(4-cyanobenzylcarbamoyl)phenyl)-5-(4-(4-fluorobenzyl)piperazine-1-carbonyl)picolinamide] and `N#Cc1ccc(CN2CCC(NC(=O)c3ccc(C(=O)N4CCCC(Oc5ccc(C#N)cc5)C4)cn3)CC2)cc1` (stereo not drawn) [Compound 137, N-(1-(4-cyanobenzyl)piperidin-4-yl)-5-(3-(4-cyanophenoxy)piperidine-1-carbonyl)picolinamide] cannot be ordered by EC50: under 500 nM for the first, under 500 nM for the second.

Compared with `O=C(c1cccc(C(=O)N2CCN(c3ccccc3)CC2)n1)N1CCN(Cc2ccc(F)cc2)CC1` [Compound 94, (4-(4-fluorobenzyl)piperazin-1-yl)(6-(4-phenylpiperazine-1-carbonyl)pyridin-2-yl)methanone], `O=C(NC1CCN(Cc2ccccc2)CC1)c1ccc(C(=O)NC2CCN(Cc3ccccc3)CC2)nc1` [Compound 264, N2,N5-bis(1-benzylpiperidin-4-yl)pyridine-2,5-dicarboxamide] is lower in EC50: over 10000 nM for the first, 5000 to 10000 nM for the second.

With `CS(=O)(=O)c1ccc(OC2CCN(C(=O)c3ccc(C(=O)N[C@@H]4CCN(Cc5ccc(OC(F)(F)F)cc5)C[C@H]4F)nc3)CC2)cc1` (relative stereo) [Compound 255, N-((trans)-3-fluoro-1-(4-(trifluoromethoxy)benzyl)piperidin-4-yl)-5-(4-(4-(methylsulfonyl)phenoxy)piperidine-1-carbonyl)picolinamide] the EC50 was under 500 nM.
